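Cultured in 96-well plates, cells were exposed to test compound for 48 hours across five concentrations. At the TGI there is no net growth.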
Assays:
Assay in all cases: inhibition of tumour cell growth, NCI panel, 48 h
[1] = tested on: KM12 colon
[2] = tested on: HOP-92 NSCLC
[3] = tested on: MCF7 breast
[4] = tested on: EKVX NSCLC
[5] = tested on: A498 renal
[6] = tested on: SW-620 colon
[7] = tested on: SF-268 CNS
[8] = tested on: NCI-H522 lung
[9] = tested on: CCRF-CEM leukemia
[10] = tested on: MALME-3M melanoma
[11] = tested on: SF-539 CNS
[12] = tested on: NCI/ADR-RES ovarian
[13] = tested on: HOP-62 NSCLC
[14] = tested on: HCC-2998 colon
[15] = tested on: ACHN renal
[16] = tested on: MDA-MB-435
[17] = tested on: TK-10 renal
[18] = tested on: PC-3 prostate
[19] = tested on: DU-145 prostate
[20] = tested on: MDA-N

CCCSCC(P(=O)(O)O)P(=O)(O)O
TGI [1]: > 100 µM
TGI [2]: > 100 µM
TGI [3]: > 100 µM
TGI [4]: > 100 µM
TGI [5]: > 100 µM
TGI [6]: > 100 µM
TGI [7]: > 100 µM
TGI [8]: > 100 µM
TGI [9]: > 100 µM
TGI [10]: > 100 µM
TGI [11]: > 100 µM
TGI [12]: > 100 µM
TGI [13]: > 100 µM
TGI [14]: > 100 µM

CCCCCCOc1ccc(C(=O)NOC)cc1
TGI [1]: > 100 µM
TGI [2]: > 100 µM
TGI [3]: > 100 µM
TGI [4]: > 100 µM
TGI [5]: > 100 µM
TGI [6]: > 100 µM
TGI [7]: > 100 µM
TGI [15]: > 100 µM
TGI [16]: > 100 µM
TGI [8]: > 100 µM
TGI [9]: > 100 µM
TGI [17]: > 100 µM
TGI [11]: > 100 µM
TGI [12]: > 100 µM
TGI [13]: > 100 µM
TGI [18]: > 100 µM
TGI [14]: > 100 µM
TGI [19]: > 100 µM
TGI [20]: > 100 µM

CC1=NS(=O)(=O)c2ccccc2N1
TGI [1]: > 100 µM
TGI [2]: > 100 µM
TGI [4]: > 100 µM
TGI [5]: > 100 µM
TGI [6]: > 100 µM
TGI [7]: > 100 µM
TGI [15]: > 100 µM
TGI [8]: > 100 µM
TGI [9]: > 100 µM
TGI [10]: > 100 µM
TGI [17]: > 100 µM
TGI [11]: > 100 µM
TGI [13]: > 100 µM
TGI [14]: > 100 µM

CCOC(=O)Cn1c(=O)c2nc(SC)sc2n(-c2ccccc2)c1=O
TGI [1]: > 100 µM
TGI [2]: > 100 µM
TGI [3]: > 100 µM
TGI [4]: > 100 µM
TGI [5]: > 100 µM
TGI [6]: > 100 µM
TGI [15]: > 100 µM
TGI [9]: > 100 µM
TGI [10]: > 100 µM
TGI [17]: > 100 µM
TGI [13]: > 100 µM
TGI [18]: > 100 µM
TGI [14]: > 100 µM
TGI [20]: > 100 µM

CCOP(=O)(OCC)C(c1ccc(F)cc1)N(C(=O)NC(F)(F)F)c1ccc(OC)cc1 (stereo not given)
TGI [1]: > 100 µM
TGI [3]: > 100 µM
TGI [4]: > 100 µM
TGI [6]: > 100 µM
TGI [7]: > 100 µM
TGI [15]: > 100 µM
TGI [16]: > 100 µM
TGI [8]: > 100 µM
TGI [9]: > 100 µM
TGI [10]: > 100 µM
TGI [17]: > 100 µM
TGI [11]: > 100 µM
TGI [12]: > 100 µM
TGI [13]: > 100 µM
TGI [14]: > 100 µM
TGI [19]: > 100 µM
TGI [20]: > 100 µM

Cc1ccc(-c2[nH]c(=O)n(C3OC(CO)C(O)C(O)C3O)c(=O)c2C#N)cc1 (stereo not given)
TGI [1]: > 100 µM
TGI [2]: > 100 µM
TGI [3]: > 100 µM
TGI [4]: > 100 µM
TGI [5]: > 100 µM
TGI [6]: > 100 µM
TGI [7]: > 100 µM
TGI [15]: > 100 µM
TGI [16]: > 100 µM
TGI [8]: > 100 µM
TGI [9]: > 100 µM
TGI [17]: > 100 µM
TGI [11]: > 100 µM
TGI [12]: > 100 µM
TGI [13]: > 100 µM
TGI [18]: > 100 µM
TGI [14]: > 100 µM
TGI [19]: > 100 µM

CS(=O)(=O)OCC(CCl)(CCl)CCl
TGI [1]: > 100 µM
TGI [2]: > 100 µM
TGI [3]: > 100 µM
TGI [5]: > 100 µM
TGI [6]: > 100 µM
TGI [7]: > 100 µM
TGI [15]: > 100 µM
TGI [16]: > 100 µM
TGI [8]: > 100 µM
TGI [9]: > 100 µM
TGI [17]: > 100 µM
TGI [12]: > 100 µM
TGI [18]: > 100 µM
TGI [14]: > 100 µM
TGI [19]: > 100 µM
TGI [20]: > 100 µM

N#Cc1c(-c2ccccc2)/c(=C\Nc2ccc(F)cc2)c(=O)n2c1nc1ccccc12
TGI [1]: > 100 µM
TGI [3]: > 100 µM
TGI [4]: > 100 µM
TGI [5]: > 100 µM
TGI [6]: > 100 µM
TGI [7]: > 100 µM
TGI [15]: > 100 µM
TGI [16]: > 100 µM
TGI [8]: 34.3 µM
TGI [9]: > 100 µM
TGI [10]: 52.7 µM
TGI [17]: > 100 µM
TGI [11]: 68.4 µM
TGI [12]: 64.9 µM
TGI [13]: 10.8 µM
TGI [18]: > 100 µM
TGI [14]: > 100 µM
TGI [20]: 57.9 µM

O=C(CC(C(=O)c1ccsc1)c1ccc2c(c1)OCO2)c1ccccc1 (stereo not given)
TGI [1]: > 100 µM
TGI [2]: > 100 µM
TGI [3]: > 100 µM
TGI [4]: > 100 µM
TGI [5]: > 100 µM
TGI [6]: > 100 µM
TGI [7]: > 100 µM
TGI [15]: > 100 µM
TGI [16]: > 100 µM
TGI [8]: > 100 µM
TGI [9]: > 100 µM
TGI [17]: > 100 µM
TGI [11]: > 100 µM
TGI [12]: > 100 µM
TGI [13]: > 100 µM
TGI [14]: > 100 µM
TGI [19]: > 100 µM
TGI [20]: > 100 µM

CC1(C)C2CCC1(C)[C@H](n1c(=O)n([C@@H]3CC4CCC3(C)C4(C)C)c(=O)n([C@@H]3CC4CCC3(C)C4(C)C)c1=O)C2
TGI [1]: > 100 µM
TGI [2]: > 100 µM
TGI [3]: > 100 µM
TGI [4]: 67.1 µM
TGI [5]: > 100 µM
TGI [6]: > 100 µM
TGI [7]: > 100 µM
TGI [15]: > 100 µM
TGI [16]: > 100 µM
TGI [8]: > 100 µM
TGI [17]: > 100 µM
TGI [11]: 48.6 µM
TGI [12]: > 100 µM
TGI [13]: > 100 µM
TGI [18]: > 100 µM
TGI [14]: 57.5 µM
TGI [19]: > 100 µM
TGI [20]: > 100 µM

COc1ccc2c(C)cc(=O)oc2c1OC
TGI [1]: > 100 µM
TGI [3]: > 100 µM
TGI [4]: > 100 µM
TGI [5]: > 100 µM
TGI [6]: > 100 µM
TGI [7]: > 100 µM
TGI [15]: > 100 µM
TGI [16]: > 100 µM
TGI [9]: > 100 µM
TGI [10]: > 100 µM
TGI [17]: > 100 µM
TGI [12]: > 100 µM
TGI [13]: > 100 µM
TGI [18]: > 100 µM
TGI [19]: > 100 µM
TGI [20]: > 100 µM

O=[N+]([O-])C(/C=C(\Cl)n1nnc2ccccc21)=C(/Cl)n1nnc2ccccc21
TGI [1]: > 100 µM
TGI [2]: > 100 µM
TGI [4]: > 100 µM
TGI [5]: > 100 µM
TGI [7]: > 100 µM
TGI [15]: > 100 µM
TGI [16]: > 100 µM
TGI [8]: > 100 µM
TGI [9]: > 100 µM
TGI [10]: > 100 µM
TGI [17]: > 100 µM
TGI [11]: > 100 µM
TGI [12]: > 100 µM
TGI [13]: > 100 µM
TGI [18]: > 100 µM
TGI [14]: > 100 µM
TGI [19]: > 100 µM
TGI [20]: > 100 µM

CN(C)c1ccc(S(=O)Nc2ccccc2)cc1 (stereo not given)
TGI [1]: 57.1 µM
TGI [3]: > 100 µM
TGI [4]: > 100 µM
TGI [6]: > 100 µM
TGI [7]: > 100 µM
TGI [15]: > 100 µM
TGI [16]: 57.5 µM
TGI [8]: > 100 µM
TGI [9]: > 100 µM
TGI [10]: > 100 µM
TGI [17]: > 100 µM
TGI [11]: > 100 µM
TGI [12]: > 100 µM
TGI [13]: > 100 µM
TGI [14]: > 100 µM
TGI [19]: > 100 µM

COc1cc(C2c3cc4c(cc3OC(NN)C2C)OCO4)cc(OC)c1OC (stereo not given)
TGI [1]: > 100 µM
TGI [2]: 84.8 µM
TGI [3]: > 40 µM
TGI [4]: > 100 µM
TGI [5]: 0.709 µM
TGI [6]: > 100 µM
TGI [7]: > 100 µM
TGI [15]: > 100 µM
TGI [8]: 8.96 µM
TGI [9]: > 93 µM
TGI [10]: > 100 µM
TGI [17]: > 100 µM
TGI [11]: 0.6 µM
TGI [12]: > 100 µM
TGI [13]: 8.55 µM
TGI [18]: > 100 µM
TGI [14]: 3.55 µM
TGI [19]: > 100 µM
TGI [20]: > 100 µM

Reference: PubChem BioAssay (NCI)
